Measurements: patent US11607458B2 (Georgia State University Research Foundation, Inc, priority 2017, dated 2023)
Values joined by “and” are separate entries in the source; they are usually repeats but may differ in a detail not shown here. Equal values may be shown once. Read-outs that look alike come from different tables or passages of the source.

Key:
[1] = Determination of the lactonization rate constants (k1) by HPLC; assay type: physicochemical; conditions: for Lactonization rate constant k1: r.t., PBS (15% DMSO)
Method: General procedure for the determination of the lactonization rate constants. To a 9 mL PBS in a 20-mL vial was added a solution of the respective tetrazine prodrug (500 μL, 500 μM). Then 1 mL of the respective alkyne (50 mM in DMSO) was added to afford a final concentration of 5 mM in PBS (15% DMSO). The reaction was stirred at r.t. Every 30 min about 500 μL the reaction mixture was taken out and 20 μL of them was injected into the HPLC by an autosampler; the rest of them was poured back to the reaction mixture. The reaction rate constant, k1, was determined by fitting the area in HPLC chromatogram of the intermediate versus time using eq. 3: Y=A exp(−k1t) eq. 3 where Y is the intermediate areas, and t is the time.

[2] = Stability of tetrazine prodrugs in PBS with or without 1 mM cysteine (HPLC); assay type: physicochemical; conditions: 25 μM, n = 4; for Prodrugs remaining, 24 h in PBS with 1 mM Cys at 37° C. / Prodrugs remaining, 24 h in PBS with 1 mM Cys at r.t: PBS (5% DMSO) with 1 mM Cys; for Prodrugs remaining, 24 h in PBS at 37° C. / Prodrugs remaining, 24 h in PBS at r.t: PBS (5% DMSO)
Method: Due to the electron deficient nature of the tetrazine moiety, the stability of the tetrazine-linked prodrugs in the presence of high concentrations of thiol species was studied. In general, a solution of tetrazine prodrug (500 μL, 500 μM) was added to either 9.5 mL of PBS or 1 mM cysteine solution in PBS in a 20-mL vial. The solution was stirred at r.t. or 37° C. for 24 h. The reaction solution was injected into HPLC, and analyzed with Method A (described above) for prodrugs 1b and 1c, and Method B for prodrug 1d.
Prodrug (1d or 1b, 25 μM in PBS alone or in the presence of 1 mM cysteine (Cys) in PBS) was incubated at r.t or 37° C. for 24 h. Then HPLC was used to monitor the concentration of the remaining prodrug (Table 5). No stability problems were observed.

[3] = tested on: HeLa cells; assay: Cytotoxicity studies in HeLa cells (MTT assay / crystal violet assay); assay type: cell-based
Method: Cell cultures. HeLa cells (ATCC) were used in the following cell culture studies. HeLa cells were maintained in DMEM (Dulbecco's Modified Eagle's Medium) supplemented with 10% fetal bovine serum (MidSci; S01520HI), and 1% penicillin-streptomycin (Sigma-Aldrich; P4333) at 37° C. with 5% CO2.
Cytotoxicity studies. Test compound was dissolved in DMSO to afford a stock solution. The final concentration of DMSO in the cell culture was 1% (v/v) in PBS. HeLa cells were seeded in 96-well plates one day before the experiment. Different concentrations of prodrug was added into the cell culture. The cells were then incubated for 48 h at 37° C. with 5% CO2. The cell viability was tested by the MTT assay described in Levitz, S. M., et al. J Infect Dis 1985, 152, 938-945. Specifically, after 48 h of incubation, 5 mg/mL MTT (3-(4,5-dimethylthiazol-2-yl)-2,5-diphenyltetrazolium bromide) was added into the cell culture. After incubation for 4 h, the supernatant was removed and 100 μL DMSO was added into the wells containing the cells. After shaking gently for 3 min, absorbance at 605 nm was read by a plate reader.
Cytotoxicity studies using crystal violet assay. The test compound was dissolved in DMSO to afford a stock solution. The final concentration of DMSO in cell culture was 1% (v/v) in PBS. HeLa cells were seeded in 96-well plates one day before the experiment. Different concentrations of the test compound were added into the cell culture. The cells were then incubated for 48 h at 37° C. with 5% CO2. Cell viability was tested by the crystal violet assay. Specifically, after 48 h of incubation, the cells were fixed in 100% methanol for 10 min and stained for 20 min with a 1% crystal violet solution in 50% methanol, followed by 5 repeated washings with PBS. 50 μL of DMSO was added to each well. After 20 min of incubation, the plates were analyzed in a microplate reader at 595 nm.
Similar results were observed when the alkyne concentration was decreased to 10 μM. For example, the IC50 of TPP-Dox prodrug 1c was about 2 μM in the presence of 2b, while the IC50 for Dox prodrug 1b was well over 10 μM in the presence of 10 μM of the alkyne trigger 2a (FIG. 3a). As controls, both the IC50 values of 1c and 2b alone were higher than 40 μM, and the treatment of 20 μM of alkyne 2a or 2b alone had no effect on cell viability. […] Without such an enrichment, the reaction is expected to be slow, resulting in a lower level of active Dox being released. […] Thus, mitochondrial enrichment leads to triggered release of the drug. The same concept is applicable to the delivery of drugs through other targeting approaches such as receptor-mediated drug delivery.

[4] = alkyne 2c, no intermediates observed by HPLC

Row | Prodrugs remaining, 24 h in PBS with 1 mM Cys at 37° C. [2] | Prodrugs remaining, 24 h in PBS with 1 mM Cys at r.t [2] | Prodrugs remaining, 24 h in PBS at 37° C. [2] | Prodrugs remaining, 24 h in PBS at r.t [2] | Compound | Lactonization rate constant k1 ([1]; alkyne 2b 5 mM, Exp 2) | Lactonization rate constant k1 ([1]; alkyne 2b 5 mM, Expt 1) | Lactonization rate constant k1 ([1]; alkyne 2b 5 mM, Expt. 3) | k1 at r.t (lactonization) ([1]; alkyne 2b, n = 3) | k1 at r.t (lactonization) [1, 4] | further results
1 | 81 ± 5% | 88 ± 5% | 85 ± 5% | 91 ± 5% | C#CCOc1ccc(-c2nnc(C(=O)NCCCOCCOCCOCCCNS(=O)(=O)c3cccc4c(N(C)C)cccc34)nn2)cc1 [1d] | 0.184 h⁻¹ | 0.162 h⁻¹ | 0.142 h⁻¹ | 0.16 ± 0.04 h⁻¹ | too fast to detect | Lactonization rate constant k1 ([1]; alkyne 2d 5 mM, Exp 2): 0.0291 h⁻¹; Lactonization rate constant k1 ([1]; alkyne 2d 5 mM, Expt 1): 0.0253 h⁻¹; Lactonization rate constant k1 ([1]; alkyne 2d 5 mM, Expt. 3): 0.0332 h⁻¹; k1 at r.t (lactonization) ([1]; alkyne 2d, n = 3): 0.029 ± 0.006 h⁻¹
2 | 76 ± 5% | 80 ± 5% | 78 ± 5% | 85 ± 5% | C#CCOc1ccc(-c2nnc(C(=O)NC3CC(OC4CC(O)(C(=O)CO)Cc5c(O)c6c(c(O)c54)C(=O)c4c(OC)cccc4C6=O)OC(C)C3O)nn2)cc1 (stereo not shown) [1b] | 0.179 h⁻¹ | 0.223 h⁻¹ | 0.196 h⁻¹ | 0.20 ± 0.04 h⁻¹ | too fast to detect | Lactonization rate constant k1 ([1]; alkyne 2a 5 mM, Exp 2): 0.206 h⁻¹; Lactonization rate constant k1 ([1]; alkyne 2a 5 mM, Expt 1): 0.185 h⁻¹; Lactonization rate constant k1 ([1]; alkyne 2a 5 mM, Expt. 3): 0.229 h⁻¹; k1 at r.t (lactonization) ([1]; alkyne 2a, n = 3): 0.21 ± 0.04 h⁻¹; IC50 ([3]; compound alone, 48 h, read-out: IC50 in Hela cell line): > 100 µM; IC50 ([3]; in the presence of 10 μM alkyne trigger 2a, 48 hours (FIG. 3a), read-out: IC50 in HeLa cells): > 10 µM; IC50 ([3]; in the presence of 20 μM alkyne 2a, 48 hours (FIG. 3b), read-out: IC50 in HeLa cells): ~10 µM; IC50 ([3]; in the presence of 50 μM alkyne 2b, 48 h, listed as Dox-prodrug 1b, read-out: IC50 in Hela cell line): ~2 µM; IC50 ([3]; in the presence of 50 μM alkyne 2b, 48 h, listed as Dox-prodrug lb, read-out: IC50 in Hela cell line): 2.3 ± 0.4 µM; IC50 ([3]; in the presence of 50 μM alkyne 2d, 48 h, listed as Dox-prodrug 1b, read-out: IC50 in Hela cell line): ~1.5 µM and 1.5 µM; IC50 ([3]; in the presence of 100 μM alkyne 2d, 48 h, read-out: IC50 in Hela cell line): 1.3 ± 0.2 µM
3 | – | – | – | – | COc1cccc2c1C(=O)c1c(O)c3c(c(O)c1C2=O)CC(O)(C(=O)CO)CC3OC1CC(NC(=O)c2nnc(-c3ccc(OCc4cn(CCCCCCCCC[P+](c5ccccc5)(c5ccccc5)c5ccccc5)nn4)cc3)nn2)C(O)C(C)O1 (stereo not shown) [1c] | 0.191 h⁻¹ | 0.225 h⁻¹ | 0.265 h⁻¹ | 0.22 ± 0.05 h⁻¹ | – | IC50 ([3]; Homo sapiens, HeLa, 48 h, compound alone, 48 h, read-out: IC50 in Hela cell line): > 40 µM; IC50 ([3]; Homo sapiens, HeLa, 48 h, in the presence of 10 μM alkyne 2b, 48 hours (FIG. 3a), read-out: IC50 in HeLa cells): ~2 µM; IC50 ([3]; Homo sapiens, HeLa, 48 h, in the presence of 20 μM TPP-alkyne 2b, 48 hours (FIG. 3b), read-out: IC50 in HeLa cells): ~1.5 µM
